Literature values as cited in patent publication US20050277597A1, “Use of N-L-alpha-aspartyl-L-phenylalanine 1-methyl ester to treat sunburn and other burns” (Oklahoma Medical Research Foundation, priority 2004, published 2005).
Where a SMILES comes first, the peptide text is derived from it.

Structure (SMILES): COC(=O)[C@H](Cc1ccccc1)NC(=O)[C@@H](N)CC(=O)O [aspartame, N-L-aspartyl-L-phenyalanine 1-methyl ester] (H-Asp-Phe-OMe)
- maximum solubility in water (pH 2.2, 25° C.): 20 mg/mL
- minimum solubility in water (pH 5.2 (pHi), 25° C.): 13.5 mg/mL
